Marks after values point to notes of the source that are not given here.
Tests used:
[1] = reference [22]; cited from earlier work
New-Zealand rabbits = assay: Intra-articular biocompatibility test in rabbit; format: in vivo
Description: Twelve male New-Zealand rabbits are kept in individual cages 2 weeks after reception before injection. The day of injection, they are anesthetized with Ketamin©/Domitor©, their posterior articulations shaved and disinfected with Vetedine© soap and solution. 200 ul of the selected formulations are injected into the articulations. The rabbit is then revived with Atipam©. The formulations are randomized for rabbits as well as for articulations and injected blindly.
Twice a week, a clinical examination is performed comprising the following points. For the general state; vigilance (at distance from the cage: normal, diminished, sleepy, enhanced), movements (at distance from the cage: normal, diminished), limb ledge (at distance from the cage: yes, no), limp (at distance from the cage: yes, no), hair state: (smooth and shiny, dull, bristling, dirty zones, hairless zones), wound: (yes, no), abnormal secretion: (yes, no), mucosal color: (pink, blade, congested, cyanosed). For the injected joints; swelling (from 0 to 3, 3 being strongest swelling), flow at the injection site (0-3), heat (0-3), palpation pain (from 0 to 3), mobilization pain (0-3), redness (0-3), hematoma (0-3). An echography is also performed under anesthesia comprising the following […] (external lateral, internal lateral and proximal) according to a protocol published in the literature and provides information about the presence of liquid, osteophytes and any severe cartilage erosion. After one month observation, the rabbits are sacrificed with intra-muscular injection of Ketamin©/Domitor© and intra-cardiac Dolethal©. The articulations are dissected and photographed before and after china ink embodiment to assess the state of the rotula, condyl, tibia and trochlea cartilage by a visual analogue scale (VAS) expressed in percentage of the structure degraded and by osteophytis scoring (OS) giving the presence or absence of osteophytes (0: absent, 1: present).
The femoral and tibial parts are fixed in 10% formalin solution and decalcified with Kristenson solution from Chimie-Plus Laboratoire (Denice, France) during several weeks. Samples are cut in two parasagittal sections for medial femoral and tibial condyles (left and right) and then paraffin embedded and sectioned into 4 μm thick slices. Sections were stained with Safranin O-fast green for cartilage. Synovial membranes were fixed in 10% formalin solution, cut in two or three parallel sections, paraffin embedded and sectioned into 4 μm thick slices. Each paraffin block was sectioned in three slides [one stained with hematoxylin, eosin and saffron (HES), and two stained with hematoxylin and eosin (HE)]. Histological features were evaluated in a blinded fashion except for control rabbits. Histological lesions were evaluated and scored according the OARSI histopathology initiative; -recommendations for histological assessments of osteoarthritis in the rabbit (Osteoarthritis and cartilage 18 (2010) S53-S65). Microscopic scoring of cartilage alterations, two sections per condyle were evaluated allowing a semi-quantitative grading. Several parameters were evaluated: Safranin O-fast green staining, structure, chondrocytes density, cluster formation. For microscopic scoring of synovial alterations, three sections per synovial membrane were evaluated, allowing semi-quantitative grading. Several parameters were evaluated: synoviocytes proliferation, synoviocytes hypertrophy, granulocytic infiltration, lymphoplasmacytic infiltration, lymphoplasmacytic aggregates follicles, villous hyperplasia, proliferation of fibroblasts/fibrocytes, proliferation of blood vessels, cartilage/bone detritus presence and hemosiderosis.
The above mentioned formulations were tested in term of intra-articular biocompatibility in the rabbit model; Conjugated HA linked to 4AR (n=4), unconjugated HA mixed with 4AR (n=4), 4AR (n=4) and as controls; physiological serum (n=2), untreated (n=2) and Ostenil© (n=4).

[2] = Viscosity and pH of formulations after steam sterilization; format: physicochemical; conditions: formulation after steam sterilization
Description: The gel is steam sterilized 10 minutes at 121° C. with an entire cycle of 35 minutes. For the viscosity, gels are measured with the rheological program presented before.
The target characteristics are a viscosity after heat sterilization of around 1000 [mPas], neutrality and isotonicity to plasma (around 280 [mOsmol]) in common with state of the art commercial formulations such as Ostenil©.

[3] = Viscosity stability in an oxidative environment (Weissberger's oxidative system, CuCl2 + ascorbic acid); conditions: gel 1 %
[4] = Antioxidant activity measurement (DPPH); format: biochemical; conditions: DPPH % after 60 minutes; for DPPH for moiety alone [%] ± SD, n = 3: free moiety, lower = more antioxidant
[5] = Water solubility of the moieties; format: physicochemical; conditions: free moiety
[6] = HA conjugate (native HA), for 4AR first value, 14 % grafting

Compound: Nc1ccc(O)cc1O [4AR, 4-aminoresorcinol]
- cytotoxicity (in words) [1]: potent cytotoxic agent
- Tibia OS (New-Zealand rabbits; 0 absent, 1 present, one month): 0%
- Trochlea OS (New-Zealand rabbits; 0 absent, 1 present, one month): 0%
- Rotula OS (New-Zealand rabbits; 0 absent, 1 small osteophyte present, one month): 0%
- Condyl OS, ext (New-Zealand rabbits; external, 0 absent, 1 present, one month): 0/0%
- Condyl VAS score, ext (New-Zealand rabbits; external, one month): 0/0%
- Tibia VAS score, ext (New-Zealand rabbits; external, one month): 0***/0*** %
- Condyl OS, int (New-Zealand rabbits; internal, 0 absent, 1 present, one month): 0/0%
- Condyl VAS score, int (New-Zealand rabbits; internal, one month): 0/0%
- Tibia VAS score, int (New-Zealand rabbits; internal, one month): 0***/0*** %
- Meniscus lesion (int/ext) (New-Zealand rabbits; one month): 0
- Synvovial membrane Fibrosis (New-Zealand rabbits; one month): 0
- Synvovial membrane Inflamation (New-Zealand rabbits; one month): 0
- Trochlea VAS score (New-Zealand rabbits; one month): 0-10* %
- Rotula VAS score (New-Zealand rabbits; percentage of structure degraded, one month after 200 ul intra-articular): 0%
- intra-articular biocompatibility (in words) (New-Zealand rabbits; single injection, one month evaluation): no sign of non-biocompatibility
- pH [2]: 7.25
- gain of viscosity ([3]; during the 36 minutes of measurement, Weissberger oxidative system, n=1): 40%
- DPPH [%] ± SD, n = 3 ([4]; 4AR conjugate with 57 % grafting (second value of the cell)): 37%
- DPPH [%] ± SD, n = 3 [4, 6]: 71%
- DPPH for moiety alone [%] ± SD, n = 3 [4]: 28%

Compound: Nc1ccc(C(=O)O)c(O)c1 [4ASA, 4-aminosalicylic acid]
- water solubility (in words) [5]: low water solubility
- DPPH [%] ± SD, n = 3 [4, 6]: 96%
- DPPH for moiety alone [%] ± SD, n = 3 [4]: 27%

Compound: Nc1ccc(O)c(C(=O)O)c1 [5ASA, 5-aminosalicylic acid]
- DPPH [%] ± SD, n = 3 [4, 6]: 67%
- DPPH for moiety alone [%] ± SD, n = 3 [4]: 34%

Compound: Cc1cc(=O)oc2cc(N)ccc12 [AMC]
- water solubility (in words) [5]: solubility is low
- DPPH [%] ± SD, n = 3 [4, 6]: 61%
- DPPH for moiety alone [%] ± SD, n = 3 [4]: 87%

Compound: Nc1ccccc1 [Aniline, aniline]
- water solubility (in words) [5]: high water solubility
- DPPH [%] ± SD, n = 3 [4, 6]: 95%
- DPPH for moiety alone [%] ± SD, n = 3 [4]: 36%

Compound: CCOC(=O)[C@@H](N)CS [EECyst, ethylester cysteine]
- DPPH [%] ± SD, n = 3 [4, 6]: 41%
- DPPH for moiety alone [%] ± SD, n = 3 [4]: 6%

Compound: NCCc1ccc(O)cc1 [Tyr, tyramin]
- viscosity behaviour / degradation in oxidative environment (in words) ([3]; CuCl2 + ascorbic acid): more degraded than HA itself
- DPPH [%] ± SD, n = 3 [4, 6]: 92%
- DPPH for moiety alone [%] ± SD, n = 3 [4]: 85%

Reference: US20150306237A1, “HYALURONIC ACID-ANTIOXIDANT CONJUGATES AND THEIR USES” (priority 2012, published 2015)
